Laboratory results reported in patent publication US20110086759A1, “CHEMICAL COMPOUNDS” (SYNGENTA CROP PROTECTION, INC., priority 2007, published 2011).

Tests used:
Type in all cases: in vivo
[1] = tested on: Alopecurus myosuroides (ALOMY); experiment: Pre-emergence biological efficacy, glasshouse pot test; details: 312 h, pre-emergence, 1,000 g/ha, evaluated after 13 days (100=total damage; 0=no damage), read-out: Percentage damage ALOMY
In short: (§1)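 Glasshouse pot test: spray on soil one day after sowing, 1000 or 250 g/ha. Conditions 24/16 °C day/night, 14 h light, 65% humidity. Plant damage scored 0–100 at 13 days.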

[2] = tested on: Amaranthus retoflexus (AMARE); experiment: as above; details: Amaranthus retroflexus, 312 h; pre-emergence, 1,000 g/ha, evaluated after 13 days (100=total damage; 0=no damage); read-out: Percentage damage AMARE
In short: as §1

[3] = tested on: Echinochloa crus-galli (ECHCG); experiment: as above; details: 312 h, pre-emergence, 1,000 g/ha, evaluated after 13 days (100=total damage; 0=no damage), read-out: Percentage damage ECHCG
In short: as §1

[4] = tested on: Ipomea hederaceae (IPOHE); experiment: as above; details: Ipomoea hederacea, 312 h; pre-emergence, 1,000 g/ha, evaluated after 13 days (100=total damage; 0=no damage); read-out: Percentage damage IPOHE
In short: as §1

Setaria faberi (SETFA) [5] = experiment: as above; details: 312 h, pre-emergence, 1,000 g/ha, evaluated after 13 days (100=total damage; 0=no damage), read-out: Percentage damage SETFA
In short: as §1

Solanum nigrum (SOLNI) [6] = experiment: as above; details: 312 h, pre-emergence, 1,000 g/ha, evaluated after 13 days (100=total damage; 0=no damage), read-out: Percentage damage SOLNI
In short: as §1

[7] = tested on: Alopecurus myosuroides (ALOMY); experiment: Post-emergence biological efficacy, glasshouse pot test; details: 312 h, post-emergence, 1,000 g/ha, evaluated after 13 days (100=total damage; 0=no damage), read-out: Percentage damage caused to weed species, ALOMY
In short: (§2)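 Pot-grown weeds were sprayed 8 days after sowing with test compound in acetone/water (50:50) with 0.5% Tween 20 at 1000 or 250 g/ha. Glasshouse at 24/16° C day/night, 14 h light, 65% humidity. Damage scored 0-100 (100 = total damage) after 13 days.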

[8] = tested on: Amaranthus retoflexus (AMARE); experiment: as above; details: Amaranthus retroflexus, 312 h; post-emergence, 1,000 g/ha, evaluated after 13 days (100=total damage; 0=no damage); read-out: Percentage damage caused to weed species, AMARE
In short: as §2

[9] = tested on: Echinochloa crus-galli (ECHCG); experiment: as above; details: 312 h, post-emergence, 1,000 g/ha, evaluated after 13 days (100=total damage; 0=no damage), read-out: Percentage damage caused to weed species, ECHCG
In short: as §2

[10] = tested on: Ipomea hederaceae (IPOHE); experiment: as above; details: Ipomoea hederacea, 312 h; post-emergence, 1,000 g/ha, evaluated after 13 days (100=total damage; 0=no damage); read-out: Percentage damage caused to weed species, IPOHE
In short: as §2

Setaria faberi (SETFA) [11] = experiment: as above; details: 312 h, post-emergence, 1,000 g/ha, evaluated after 13 days (100=total damage; 0=no damage), read-out: Percentage damage caused to weed species, SETFA
In short: as §2

Solanum nigrum (SOLNI) [12] = experiment: as above; details: 312 h, post-emergence, 1,000 g/ha, evaluated after 13 days (100=total damage; 0=no damage), read-out: Percentage damage caused to weed species, SOLNI
In short: as §2

SMILES	pest or weed control at 1000 g/ha [1]	pest or weed control at 1000 g/ha [2]	pest or weed control at 1000 g/ha [3]	pest or weed control at 1000 g/ha [4]	pest or weed control at 1000 g/ha (Setaria faberi (SETFA) [5])	pest or weed control at 1000 g/ha (Solanum nigrum (SOLNI) [6])	pest or weed control at 1000 g/ha [7]	pest or weed control at 1000 g/ha [8]	pest or weed control at 1000 g/ha [9]	pest or weed control at 1000 g/ha [10]	pest or weed control at 1000 g/ha (Setaria faberi (SETFA) [11])	pest or weed control at 1000 g/ha (Solanum nigrum (SOLNI) [12])
COC(=O)c1ccc(CNc2nc(C3CC3)nc(C(=O)OC)c2Cl)cc1 [Compound 4-94, 5-Chloro-2-cyclopropyl-6-methoxycarbonyl-4-(4-methoxy-carbonylphenyl-methylamino)-pyrimidine]	10%	70%	10%	50%	10%	80%	10%	100%	10%	100%	30%	90%
COC(=O)c1nc(C2CC2)nc(NCc2cccc(-c3ccccc3)c2)c1Cl [Compound 4-95, 5-Chloro-2-cyclopropyl-6-methoxycarbonyl-4-(3-phenylphenyl-methylamino)-pyrimidine]	10%	60%	10%	30%	10%	30%	20%	90%	60%	100%	60%	80%
COC(=O)c1nc(C2CC2)nc(NCc2cccc(F)c2F)c1Cl [Compound 4-96, 5-Chloro-2-cyclopropyl-4-(2,3-difluorophenyl-methylamino)-6-methoxycarbonyl-pyrimidine]	10%	60%	20%	50%	30%	60%	20%	100%	80%	100%	90%	100%
COC(=O)c1nc(C2CC2)nc(NCc2ccc(F)cc2F)c1Cl [Compound 4-97, 5-Chloro-2-cyclopropyl-4-(2,4-difluorophenyl-methylamino)-6-methoxycarbonyl-pyrimidine]	20%	40%	40%	60%	40%	50%	20%	100%	80%	100%	90%	100%
COC(=O)c1nc(C2CC2)nc(NCc2cc(F)ccc2F)c1Cl [Compound 4-98, 5-Chloro-2-cyclopropyl-4-(2,5-difluorophenyl-methyl-amino)-6-methoxycarbonyl-pyrimidine]	30%	50%	20%	60%	30%	60%	40%	100%	80%	100%	100%	100%
COC(=O)c1nc(C2CC2)nc(NCc2c(F)cccc2F)c1Cl [Compound 4-99, 5-Chloro-2-cyclopropyl-4-(2,6-difluorophenylmeth-ylamino)-6-methoxycarbonyl-pyrimidine]	30%	60%	50%	60%	50%	60%	50%	100%	100%	100%	100%	100%
COC(=O)c1nc(C2CC2)nc(NCc2cc(F)cc(F)c2)c1Cl [Compound 4-100, 5-Chloro-2-cyclopropyl-4-(3,5-difluorophenylmeth-ylamino)-6-methoxy-carbonylpyrimidine]	20%	70%	40%	50%	20%	60%	30%	100%	70%	100%	100%	100%
COC(=O)c1nc(C2CC2)nc(NCc2ccc(Cl)cc2F)c1Cl [Compound 4-101, 5-Chloro-4-(4-chloro-2-fluoro-phenylmethyl-amino)-2-cyclopropyl-6-methoxycarbonyl-pyrimidine]	10%	70%	30%	70%	10%	30%	30%	100%	50%	100%	90%	100%
COC(=O)c1nc(C2CC2)nc(NCc2ccc(Cl)cc2Cl)c1Cl [Compound 4-103, 5-Chloro-2-cyclopropyl-4-(2,4-dichlorophenyl-methylamino)-6-methoxycarbonyl-pyrimidine]	10%	40%	0%	30%	0%	10%	20%	100%	60%	90%	70%	80%
COC(=O)c1nc(C2CC2)nc(NCc2c(Cl)cccc2Cl)c1Cl [Compound 4-104, 5-Chloro-2-cyclopropyl-4-(2,6-dichlorophenyl-methylamino)-6-methoxycarbonyl-pyrimidine]	10%	40%	20%	20%	0%	30%	20%	100%	90%	100%	90%	90%
COC(=O)c1nc(C2CC2)nc(NCc2cc(C(F)(F)F)cc(C(F)(F)F)c2)c1Cl [Compound 4-108, 4-(3,5-Bis-trifluoro-methylphenyl-methylamino)-5-chloro-2-cyclo-propyl-6-methoxy-carbonylpyrimidine]	0%	40%	0%	40%	10%	0%	10%	50%	10%	70%	20%	90%
